According to EP4778929A1, “NOVEL TYPE I TOPOISOMERASE INHIBITOR, AND PREPARATION METHOD THEREFOR AND USE THEREOF” (priority 2023, dated 2025):
Read-outs that look alike come from different tables or passages of the source.

What was measured:
[1] = target: T1, topoisomerase I (Topo I) (Homo sapiens, UniProt P11387); test: Topo I enzyme-inhibitory activity by agarose-gel electrophoresis (plasmid relaxation); type: biochemical
T1 sequence (P11387 1-765): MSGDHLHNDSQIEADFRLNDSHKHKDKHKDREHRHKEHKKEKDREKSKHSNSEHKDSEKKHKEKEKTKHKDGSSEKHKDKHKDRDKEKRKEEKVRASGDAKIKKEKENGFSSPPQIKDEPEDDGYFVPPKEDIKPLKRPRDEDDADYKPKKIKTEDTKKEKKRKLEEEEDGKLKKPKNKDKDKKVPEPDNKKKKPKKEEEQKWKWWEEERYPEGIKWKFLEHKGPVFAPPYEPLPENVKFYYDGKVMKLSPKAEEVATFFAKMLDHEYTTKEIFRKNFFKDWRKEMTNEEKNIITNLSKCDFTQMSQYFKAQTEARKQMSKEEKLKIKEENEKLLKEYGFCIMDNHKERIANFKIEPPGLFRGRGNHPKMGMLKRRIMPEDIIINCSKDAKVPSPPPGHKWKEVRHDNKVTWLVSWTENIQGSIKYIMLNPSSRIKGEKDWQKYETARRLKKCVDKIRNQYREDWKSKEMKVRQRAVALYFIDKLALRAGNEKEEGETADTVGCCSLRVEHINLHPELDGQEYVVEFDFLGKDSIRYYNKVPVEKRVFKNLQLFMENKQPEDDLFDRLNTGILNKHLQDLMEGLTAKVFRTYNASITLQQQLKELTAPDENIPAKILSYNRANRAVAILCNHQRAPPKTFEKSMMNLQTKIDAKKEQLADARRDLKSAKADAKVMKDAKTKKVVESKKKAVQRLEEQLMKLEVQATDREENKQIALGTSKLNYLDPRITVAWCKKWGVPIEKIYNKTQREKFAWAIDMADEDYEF
In short: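 Supercoiled pNO1 plasmid (0.5 µg) was relaxed by Topo I (0.75 U) in 20 mM Tris-HCl pH 7.5, 200 mM NaCl, 0.25 mM EDTA, 5 % glycerol, 5 % DMSO final, for 30 min at 37 °C. Supercoiled band intensity on agarose gel was normalized to no-enzyme and vehicle controls. IC50 from a four-parameter logistic fit.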

[2] = Pharmacokinetic study in mice, plasma concentrations by LC-MS/MS; conditions: mouse, in vivo
Experimental: Test Example 3. Pharmacokinetic Study for Determining Compound Concentrations in Mice by LC-MS/MS
Principle: LC-MS/MS is used to quantify the plasma concentrations of the test article at successive time points, generating an in-vivo pharmacokinetic profile.
Procedure: The test compound was dissolved in DMSO to prepare a 10 mg/mL stock solution. This stock was further diluted to 1 mg/mL with a vehicle consisting of 10 % DMSO + 10 % Solutol HS-15 + 80 % saline. Male CD-1 mice (JH Laboratory Animal Co., LTD) were employed; six animals were assigned per compound group. […] Serial blood samples (~50 µL whole blood, K2EDTA anticoagulant) were collected at 0.083, 0.25, 0.5, 1, 2, 4, 8 and 24 h (three mice per time point in a crossover design). Blood was centrifuged at 6 000 g for 5 min at 4 °C; plasma was harvested and stored at -70 °C until analysis. Plasma drug concentrations were determined by LC-MS/MS.
Calibration Curve and QC Preparation: Working solutions were prepared by dilution with MeOH:H2O (1:1). For each calibration or QC level, 3 µL of working solution was spiked into 57 µL of blank mouse plasma.
Sample Processing: To 30 µL of plasma was added 200 µL of methanol containing the internal standard (propranolol, 40 ng mL^-1). After vortex-mixing for 1 min, the mixture was centrifuged at 12 000 rpm for 10 min. A 100 µL aliquot of the supernatant was transferred to a clean plate for injection.
Pharmacokinetic Analysis: Concentration-time data were analyzed with WinNonlin 8.2 using a non-compartmental approach to derive PK parameters including Cmax, Tmax, AUC and terminal elimination half-life (t1/2). AUC was calculated by the linear-up/log-down trapezoidal method. Table 3. Pk parameters of compounds

Row | SMILES | IC50 [1] [nM] | AUC(0-t) at 24 h ([2]; iv, 2 mg/kg) [ng·h/mL] | Cmax ([2]; iv, 2 mg/kg) [ng/mL] | clearance ([2]; iv, 2 mg/kg) [mL/min/kg] | half-life ([2]; iv, 2 mg/kg) [min] | AUC(0-t) at 24 h ([2]; po, 20 mg/kg) [ng·h/mL] | Cmax ([2]; po, 20 mg/kg) [ng/mL] | Tmax ([2]; po, 20 mg/kg) [min] | bioavailability ([2]; po, 20 mg/kg) [%] | half-life ([2]; po, 20 mg/kg) [min] | IC50 ([1]; read-out: inhibition of topoisomerase I (Topo I) enzymatic activity, IC50, 0.75 U Topo I, pNO1 plasmid, 37 °C, 30 min, compounds listed by group (Group A / Group B)) [nM] | AUC(0-t) at 24 h ([2]; iv, 1 mg/kg) [ng·h/mL] | Cmax ([2]; iv, 1 mg/kg) [ng/mL] | clearance ([2]; iv, 1 mg/kg) [mL/min/kg] | half-life ([2]; iv, 1 mg/kg) [min]
1 | CC[C@@]1(O)C(=O)OCc2c1cc1n(c2=O)Cc2c-1c(=O)c1cc(F)cc(C)c1n2C [Example 2, (S)-4-ethyl-8-fluoro-4-hydroxy-10,11-dimethyl-1,12-dihydro-14H-pyrano[3,4:6,7]indolizino[2,1-b]quinoline-3,6,14(4H,11H)-trione] | < 200 | 323 | 604 | 110 | 69.6 | 911 | 956 | 25.2 | 28.5 | 135 | – | – | – | – | –
2 | CC[C@@]1(O)C(=O)OCc2c1cc1n(c2=O)Cc2c-1c(=O)c1cc(F)ccc1n2CCN(C)C1CCCC1 [Example 117] | – | – | – | – | – | – | – | – | – | – | 200 to 500 | 38.7 | 107 | 439 | 14.1
